pEC50: −log10 of the molar value. *1 amine or outer side, *2 acyl side, *3 side chain or, on linkers, in order; H or OH if unused. Where a SMILES comes first, the peptide text is derived from it. Side-chain parts run from the residue outwards. [ ]: non-standard residue; d: D form. The star is where a group is joined. C20 diacid = O=C(O)CCCCCCCCCCCCCCCCCCC(=O)*; γGlu = O=C(O)[C@H](CCC(=O)[*:2])N[*:1]; NMeI = CC[C@H](C)[C@H](NC)C(=O)O; Aib = CC(C)(N)C(=O)O

Data on two compounds can be found in patent publication US20260001928A1 (CORTERIA PHARMACEUTICALS, priority 2022, published 2026).

One data set concerns the target T1, human CRF2a receptor (Homo sapiens, UniProt Q13324).
T1 construct: expressed in transfected cells; host or cells: TeloHEAC cells
T1 sequence (Q13324 1-411): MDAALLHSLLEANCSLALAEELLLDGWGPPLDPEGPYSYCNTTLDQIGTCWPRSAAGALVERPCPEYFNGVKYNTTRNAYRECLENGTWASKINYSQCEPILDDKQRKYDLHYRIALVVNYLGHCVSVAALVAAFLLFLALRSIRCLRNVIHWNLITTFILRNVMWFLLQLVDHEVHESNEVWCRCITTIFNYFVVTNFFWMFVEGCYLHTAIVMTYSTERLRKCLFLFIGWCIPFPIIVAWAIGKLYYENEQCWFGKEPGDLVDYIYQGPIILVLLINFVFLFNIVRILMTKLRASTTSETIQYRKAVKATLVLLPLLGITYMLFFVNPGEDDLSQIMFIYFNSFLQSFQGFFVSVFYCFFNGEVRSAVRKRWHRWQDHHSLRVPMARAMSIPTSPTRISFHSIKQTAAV
Briefly: Activity at human CRF2a receptor, cAMP functional assay in TeloHEAC cells. It is filed as cell-based. To be noted: TeloHEAC cells stably expressing human CRF2a receptor, relative to urocortin 2 (100 nM = 100%). The procedure, abridged:
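cAMP accumulation was measured by HTRF 665/620 nm ratio after 30 min at 37° C compound exposure (16 twofold dilutions) of CRF2a-expressing TeloHEAC cells, 10000/well, in HEPES-buffered HBSS plus IBMX. Activity was normalised to urocortin 2 at 100 nM (100%), and EC50 was the concentration giving half-maximal activation.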

Another data set relates to Sprague Dawley rats. Briefly: Effect on systolic blood pressure, telemetry in Sprague Dawley rats. The format is in vivo, rat. To be noted: 0.1 mg/kg SC; for Systolic blood pressure (Mean) % change from baseline, 8 h / Systolic blood pressure (Mean) % change from baseline, 12 h / Systolic blood pressure (Mean) % change from baseline, 24 h: n=2; for Duration of action: last time point with an effect on BP still observed. The method, boiled down: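 Values are % change from a 1 h pre-dose baseline in systolic pressure, tracked by telemetry for up to 48 hours after a single 0.1 mg/kg subcutaneous dose. Rats (Sprague Dawley, n=2 per peptide) carried aortic catheters and recovered at least 10 days post-surgery; duration of action marks the last time point still showing an effect.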

The next data set addresses T2, CFR1R receptor (Homo sapiens, UniProt P34998).
T2 construct: host or cells: CHO-K1 (clone 2)
T2 sequence (P34998 24-415): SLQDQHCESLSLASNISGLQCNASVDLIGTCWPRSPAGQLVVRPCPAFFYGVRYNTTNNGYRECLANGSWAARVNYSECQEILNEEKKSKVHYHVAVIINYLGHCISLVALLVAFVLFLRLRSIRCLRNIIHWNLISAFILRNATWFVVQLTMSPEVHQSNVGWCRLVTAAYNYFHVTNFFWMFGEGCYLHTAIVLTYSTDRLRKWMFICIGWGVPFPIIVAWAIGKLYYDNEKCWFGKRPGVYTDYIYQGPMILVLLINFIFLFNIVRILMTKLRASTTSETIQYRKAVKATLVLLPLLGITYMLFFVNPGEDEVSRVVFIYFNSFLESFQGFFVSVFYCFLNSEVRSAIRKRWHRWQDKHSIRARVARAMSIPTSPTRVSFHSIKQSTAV
Briefly: Activity at anti-target CFR1R receptor, cAMP assay in CRF1R-overexpression CHO-K1 cells. The format is cell-based. The following applies: 100% = Sauvagine at 100 nM; for pEC50: cAMP. The method, boiled down:
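Grow clone 2 to near confluence at 37° C. under 5% CO2 in F12 (Hams) with 10% FBS and G418, harvest, and freeze in 10% DMSO. Thaw and plate at 4000 cells/well. Then proceed per the TeloHAEC method, normalising to Sauvagine 100 nM as maximum.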

Data set [1] in a line: Pharmacokinetics in male Sprague Dawley rats after subcutaneous administration. The format is in vivo. To be noted: plasma, rat.
Data set [2] in a line: Chemical stability in buffer (pH 7.4 / pH 4.5), % purity loss. The format is physicochemical. To be noted: 100 mM phosphate buffer pH 7.4; 40° C. vs 5° C.; 14 or 28 days. The method, boiled down: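 LC-UV gave % loss after 14 or 28 days of storage at 5 °C or 40 °C. Samples were diluted supernatants from compound incubated 1 h at room temperature at 10 mg/mL target, in 100 mM acetate pH 4.5 or 100 mM phosphate pH 7.4.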

Turning to `CC[C@H](C)[C@H](NC)C(=O)N[C@H](C(=O)N[C@@H](CC(C)C)C(=O)N[C@@H](CO)C(=O)N[C@@H](CC(C)C)C(=O)N[C@@H](CC(=O)O)C(=O)N[C@@H](C(=O)N1CCC[C@H]1C(=O)N[C@H](C(=O)N[C@@H](CCCCN)C(=O)N[C@@H](CC(C)C)C(=O)N[C@@H](CCCCNC(=O)CC[C@H](NC(=O)CCCCCCCCCCCCCCCCCCC(=O)O)C(=O)O)C(=O)N[C@@H](CCCCN)C(=O)N[C@H](C(=O)N[C@@H](CC(C)C)C(=O)N[C@@H](CC(C)C)C(=O)N[C@@H](CCC(=O)O)C(=O)N[C@@H](CCC(N)=O)C(=O)N[C@@H](CCC(=O)O)C(=O)N[C@@H](CCCCN)C(=O)N[C@@H](CCC(N)=O)C(=O)N[C@@H](CCCCN)C(=O)NC(C)(C)C(=O)N[C@@H](CCC(N)=O)C(=O)N[C@@H](CCCNC(=N)N)C(=O)N[C@@H](CCC(=O)O)C(=O)N[C@@H](CCC(N)=O)C(=O)N[C@@H](C)C(=O)N[C@@H](CCC(=O)O)C(=O)N[C@H](C(=O)N[C@@H](CC(N)=O)C(=O)NC(C)(C)C(=O)N[C@@H](CCC(N)=O)C(=O)N[C@H](C(=O)N[C@@H](CC(C)C)C(=O)N[C@@H](C)C(=O)N[C@@H](CCC(N)=O)C(=O)N[C@H](C(N)=O)C(C)C)[C@@H](C)CC)[C@@H](C)O)[C@@H](C)CC)[C@@H](C)CC)C(C)C)C(C)C` [compound 215] (H-[NMeI]VLSLD[dV]PIKLK([γGlu-C20 diacid])KILLEQEKQK[Aib]QREQAETN[Aib]QILAQV-NH2), the negative logarithm of the EC50 (pEC50) at human CRF2a receptor is 9.92. Further, in the data set on Sprague Dawley rats, the “Systolic blood pressure (Mean) % change from baseline, 8 h” value was −12%; the “Systolic blood pressure (Mean) % change from baseline, 12 h” value is reported as −14%; the “Systolic blood pressure (Mean) % change from baseline, 24 h” value is listed as −16%; the Duration of action is given as >24 h. In addition, on CFR1R receptor, the “Emax (% I)” value is on record as 19 % I and the pEC50 was < 6.60. In data set [1] (IV, 0.05 mg/kg), this compound had an AUC(0-t) of 7320 ng·h/mL and a half-life of 8 h. Also, in data set [1] (SC, 0.1 mg/kg), the time to peak (Tmax) is 7 h and the half-life was 10 h. The “Buffer stability pH 7.4 % purity loss” value in data set [2] is reported as 0.0/Not Tested %.
`CC[C@H](C)[C@H](NC)C(=O)N[C@H](C(=O)N[C@@H](CC(C)C)C(=O)N[C@@H](CO)C(=O)N[C@@H](CC(C)C)C(=O)N[C@@H](CC(=O)O)C(=O)N[C@@H](C(=O)N1CCC[C@H]1C(=O)N[C@H](C(=O)N[C@@H](CCCCN)C(=O)N[C@@H](CC(C)C)C(=O)N[C@@H](CCCCNC(=O)CC[C@H](NC(=O)CCCCCCCCCCCCCCCCCCC(=O)O)C(=O)O)C(=O)N[C@@H](CCCCN)C(=O)N[C@H](C(=O)N[C@@H](CC(C)C)C(=O)N[C@@H](CC(C)C)C(=O)N[C@@H](CCC(=O)O)C(=O)N[C@@H](CCC(N)=O)C(=O)N[C@@H](CCC(=O)O)C(=O)N[C@@H](CCCCN)C(=O)N[C@@H](CCC(N)=O)C(=O)N[C@@H](CCCCN)C(=O)N[C@@H](CCC(=O)O)C(=O)N[C@@H](CCC(N)=O)C(=O)N[C@@H](CCCNC(=N)N)C(=O)N[C@@H](CCC(=O)O)C(=O)N[C@@H](CCC(N)=O)C(=O)N[C@@H](C)C(=O)N[C@@H](CCC(=O)O)C(=O)N[C@H](C(=O)N[C@@H](CC(N)=O)C(=O)NC(C)(C)C(=O)N[C@@H](CCC(N)=O)C(=O)N[C@H](C(=O)N[C@@H](CC(C)C)C(=O)N[C@@H](C)C(=O)N[C@@H](CCC(N)=O)C(=O)N[C@H](C(N)=O)C(C)C)[C@@H](C)CC)[C@@H](C)O)[C@@H](C)CC)[C@@H](C)CC)C(C)C)C(C)C` [compound 218] (H-[NMeI]VLSLD[dV]PIKLK([γGlu-C20 diacid])KILLEQEKQKEQREQAETN[Aib]QILAQV-NH2) gave a negative-log EC50 (pEC50) on human CRF2a receptor of 9.96. For the same compound, in the data set on Sprague Dawley rats, the “Systolic blood pressure (Mean) % change from baseline, 8 h” value is given as −13%; the “Systolic blood pressure (Mean) % change from baseline, 12 h” value is −17%; the “Systolic blood pressure (Mean) % change from baseline, 24 h” value is recorded as −16%; the Duration of action is given as >24 h. Moreover, at CFR1R receptor, the “Emax (% I)” value is on record as 24 % I and the negative logarithm of the EC50 (pEC50) was < 6.60. In data set [1] (IV, 0.05 mg/kg), this compound showed an AUC(0-t) of 6740 ng·h/mL and a half-life of 11 h. For the same compound, the Tmax in data set [1] (SC, 0.1 mg/kg) stood at 24 h. The “Buffer stability pH 7.4 % purity loss” value in data set [2] is listed as 0.0/Not Tested %.
